In ChEMBL document CHEMBL1154348, “Arginine-pyrimidine conjugates with therapeutic and prophylactic activity in lethal bacterial infections” (Bioorg Med Chem Lett, 2009):
Calls of active or inactive are those of the source. No cut-off for these calls is given here.

Tests used:
Escherichia coli [1] = experiment: Antibacterial activity against Escherichia coli; type: functional
Mus musculus [2] = experiment: Subchronic toxicity in mouse up to 450 mg/kg, ip after 5 days; type: organism-based; set-up: dose 450 mg/kg, route intraperitoneal; conditions: in vivo, 120 h
[3] = Half life in mouse at 100 mg/kg, ip after 30 mins; type: ADME, organism-based; set-up: dose 100 mg/kg, route intraperitoneal; conditions: in vivo
Escherichia coli [4] = experiment: Prophylactic efficacy against Escherichia coli infected lethal mouse sepsis model assessed as survival at 50 mg/kg, ip administered 1 hr before infection; type: functional; conditions: route intraperitoneal
[5] = Therapeutic efficacy against Escherichia coli infected lethal mouse sepsis model assessed as survival at 30 mg/kg, ip administered 0.5 hrs and 4 hrs post infection; type: organism-based; set-up: dose 30 mg/kg, route intraperitoneal; conditions: in vivo
[6] = Therapeutic efficacy against Staphylococcus aureus infected lethal mouse sepsis model assessed as survival at 30 mg/kg, ip administered 0.5 hrs and 4 hrs post infection; type: organism-based; set-up: dose 30 mg/kg, route intraperitoneal; conditions: in vivo
Escherichia coli [7] = experiment: Prophylactic efficacy against Escherichia coli infected lethal mouse sepsis model assessed as survival at 50 mg/kg, ip administered 2 hrs before infection; type: functional; conditions: route intraperitoneal
Staphylococcus aureus = experiment: Antibacterial activity against Staphylococcus aureus; type: functional
Mus musculus [8] = experiment: Acute toxicity in mouse up to 450 mg/kg, ip after 5 days; type: organism-based; set-up: dose 450 mg/kg, route intraperitoneal; conditions: in vivo, 120 h
Streptococcus pyogenes = experiment: Antibacterial activity against Streptococcus pyogenes infected in cyclophosphamide-treated immunocompromized mouse assessed as inhibition of muscle infection; type: functional, organism-based; conditions: Muscle tissue
Escherichia coli [9] = experiment: Antibacterial activity against Escherichia coli infected lethal mouse sepsis model assessed as reduction in bacterial load in mouse blood at 50 mg/kg, ip administered 0.5 hrs and 4 hrs post infection measured after 5 hrs; type: functional; conditions: route intraperitoneal
Escherichia coli [10] = experiment: Antibacterial activity against Escherichia coli infected lethal mouse sepsis model assessed as reduction in bacterial load in mouse blood at 50 mg/kg, ip administered as single dose 0.5 hrs post infection measured after 5 hrs; type: functional; conditions: route intraperitoneal
[11] = Cmax in mouse at 100 mg/kg, ip after 30 mins; type: ADME, organism-based; set-up: dose 100 mg/kg, route intraperitoneal; conditions: in vivo
Escherichia coli [12] = experiment: Prophylactic efficacy against Escherichia coli infected lethal mouse sepsis model assessed as survival at 50 mg/kg, ip administered 3 hrs before infection; type: functional; conditions: route intraperitoneal
Pseudomonas aeruginosa = experiment: Antibacterial activity against Pseudomonas aeruginosa infected in cyclophosphamide-treated immunocompromized mouse assessed as inhibition of wound infection; type: functional, organism-based
Escherichia coli [13] = experiment: Prophylactic efficacy against Escherichia coli infected lethal mouse sepsis model assessed as survival at 50 mg/kg, ip administered 0.5 hrs before infection; type: functional; conditions: route intraperitoneal
Plasma = experiment: Stability in mouse plasma after 3 hrs; type: ADME, cell-free

| SMILES | MIC (Escherichia coli [1]) | Activity (Mus musculus [2]) | half-life [3] | Efficacy (Escherichia coli [4]) | Efficacy [5] | Efficacy [6] | Efficacy (Escherichia coli [7]) | MIC (Staphylococcus aureus) | Activity (Mus musculus [8]) | Activity (Streptococcus pyogenes) | CFU (Escherichia coli [9]) | CFU (Escherichia coli [10]) | Cmax [11] | Efficacy (Escherichia coli [12]) | Activity (Pseudomonas aeruginosa) | Efficacy (Escherichia coli [13]) | Stability (Plasma) |
| --- | --- | --- | --- | --- | --- | --- | --- | --- | --- | --- | --- | --- | --- | --- | --- | --- | --- |
| CN(CCCN(C)c1ncccn1)C(=O)[C@@H](N)CCCNC(=N)N | > 250 µg/mL | Non-toxic | 1 h | 80% | 80% | 60% | 60% | > 250 µg/mL | Non-toxic | inactive | 3.7 ×10² /ml | 2.7 ×10³ /ml | 56 µg/mL | 40% | inactive | 80% | Stable |
| CN(CCCNC(=O)[C@@H](N)CCCNC(=N)N)c1ncccn1 |  |  |  |  | 40% | 40% |  |  |  |  |  |  |  |  |  |  |  |
| O=C(O)c1cn(C2CC2)c2cc(N3CCNCC3)c(F)cc2c1=O [CIPROFLOXACIN] |  |  |  |  | 60% | 40% |  |  |  |  |  |  |  |  |  |  |  |
